The results in this text go back to PMC8484532, “Synthesis and Evaluation of New Halogenated GR24 Analogs as Germination Promotors for Orobanche cumana” (Frontiers in Plant Science, 2021).

Like-named read-outs stand apart in the source and are kept apart here.

The assay addresses T1, ShHTL7 (Striga hermonthica, UniProt A0A0M3PNA2).
T1 sequence (A0A0M3PNA2 1-271): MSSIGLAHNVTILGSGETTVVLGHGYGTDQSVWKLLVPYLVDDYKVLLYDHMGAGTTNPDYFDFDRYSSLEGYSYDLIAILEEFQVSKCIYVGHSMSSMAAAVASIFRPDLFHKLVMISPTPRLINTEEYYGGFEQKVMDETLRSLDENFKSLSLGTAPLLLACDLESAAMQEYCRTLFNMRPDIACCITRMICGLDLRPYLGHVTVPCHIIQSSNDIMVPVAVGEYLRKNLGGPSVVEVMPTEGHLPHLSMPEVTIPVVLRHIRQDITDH
Description: in vitro yoshimulactone green (YLG) fluorescence competition assay. In kind it is biochemical.

The term IC50 denotes the concentration needed to halve the response being measured. For the molecule `CC1=CC(O/C=C2/C(=O)OC3c4ccccc4CC23)OC1=O` (racemic) [rac-GR24], the IC50 was determined as 319 ± 32 nM. Regarding `CC1=CC(O/C=C2/C(=O)OC3c4cc(Br)ccc4CC23)OC1=O` (stereo not shown) [7BrGR24, 7-bromo-GR24], under “read-out: IC50”, the IC50 is 521 ± 87 nM. The same measure, in the same setting: to `CC1=CC(O/C=C2/C(=O)OC3c4cc(F)ccc4CC23)OC1=O` (stereo not shown) [7FGR24, 7-fluoro-GR24] belongs 189 ± 12 nM.

`CC1=C[C@H](O/C=C2/C(=O)O[C@@H]3c4ccccc4C[C@H]23)OC1=O` [(+)-GR24] gave an IC50 of 248 ± 32 nM.
